From patent US20240109900A1, “AZABICYCLIC SHP2 INHIBITORS” (IRBM S.P.A., priority 2021, published 2024)
Where two headings read alike, the source gives them in different places.

Key:
[1] = system: ERK phosphorylation in KYSE-520 cells; experiment: Phospho-ERK cellular assay; assay type: cell-based; settings: KYSE-520 cells, 2 h at 37° C., phospho-ERK1/2 (Thr202/Tyr204) TR-FRET, read-out: PERK IC50
Procedure, shortened: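 TR-FRET read-out of ERK1/2 Thr202/Tyr204 phosphorylation was taken after overnight antibody incubation at room temperature. Before that, KYSE-520 cells were treated 2 h at 37 °C with compound dilutions and lysed 30 min. Percent inhibition relative to vehicle and cell-free wells was fitted four-parametrically to give IC50.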

[2] = molecular target: SHP-2 enzyme (Met1-Leu525) (Homo sapiens (Human), UniProt Q06124); experiment: SHP2 inhibition enzymatic assay; assay type: biochemical; settings: 0.5 nM SHP-2 activated by 500 nM IRS1 peptide, 75 μM DiFMUP substrate; read-out: SHP2wt-IC50
Procedure, shortened: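 Compounds were preincubated 30 min with 0.5 nM SHP-2 (Met1-Leu525) plus 500 nM IRS1 activating peptide (pH 7.2 HEPES, 5 mM DTT), then 75 μM DiFMUP substrate reacted 30 min at room temperature. After bpV quench, DiFMUP fluorescence gave % inhibition; four-parameter logistic fit yielded IC50.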

Sequence of SHP-2 enzyme (Met1-Leu525) (Q06124 1-525): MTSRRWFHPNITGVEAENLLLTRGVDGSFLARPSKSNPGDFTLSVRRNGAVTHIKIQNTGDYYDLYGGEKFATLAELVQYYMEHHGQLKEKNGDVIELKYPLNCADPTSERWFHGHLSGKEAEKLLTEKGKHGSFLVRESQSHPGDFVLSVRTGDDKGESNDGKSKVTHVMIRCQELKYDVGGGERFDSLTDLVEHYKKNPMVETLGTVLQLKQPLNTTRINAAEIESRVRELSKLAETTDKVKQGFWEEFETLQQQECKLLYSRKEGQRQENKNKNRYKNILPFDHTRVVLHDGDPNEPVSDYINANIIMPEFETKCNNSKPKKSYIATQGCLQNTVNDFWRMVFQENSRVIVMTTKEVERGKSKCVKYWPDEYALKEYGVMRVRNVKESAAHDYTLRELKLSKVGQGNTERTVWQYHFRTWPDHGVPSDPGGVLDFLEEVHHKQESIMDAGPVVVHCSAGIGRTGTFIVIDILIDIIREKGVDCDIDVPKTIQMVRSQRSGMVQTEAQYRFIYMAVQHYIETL

Row | Compound | IC50 ([1]; Homo sapiens, KYSE-520, 2 h) [nM] | IC50 [2] [nM] | IC50 [1] [nM]
1 | NC[C@]1(c2ccccc2F)[C@@H]2CCN(c3cnc4c(-c5ccc(-n6cccc6)cc5Cl)n[nH]c4n3)C[C@@H]21 [Example 454, ((1S,6R,7R)-3-(3-(2-chloro-4-(1H-pyrrol-1-yl)phenyl)-1H-pyrazolo[3,4-b]pyrazin-6-yl)-7-(2-fluorophenyl)-3-azabicyclo[4.1.0]heptan-7-yl)methanamine] | < 1000 | < 500 | –
2 | NC[C@]1(c2ccccc2)[C@@H]2CN(c3cnc4c(-c5cc(F)c6ncccc6c5)n[nH]c4n3)C[C@@H]21 [Example 455, ((1R,5S,6s)-3-(3-(8-fluoroquinolin-6-yl)-1H-pyrazolo[3,4-b]pyrazin-6-yl)-6-phenyl-3-azabicyclo[3.1.0]hexan-6-yl)methanamine] | < 1000 | < 500 | –
3 | NC[C@]1(c2ccccc2)[C@@H]2CN(c3cnc4c(-c5ccc6nccnc6c5Cl)n[nH]c4n3)C[C@@H]21 [Example 456, ((1R,5S,6s)-3-(3-(5-chloroquinoxalin-6-yl)-1H-pyrazolo[3,4-b]pyrazin-6-yl)-6-phenyl-3-azabicyclo[3.1.0]hexan-6-yl)methanamine] | < 1000 | < 500 | –
4 | Cc1csc([C@@]2(CN)[C@@H]3CN(c4cnc5c(-c6ccc7nn(C)cc7c6Cl)n[nH]c5n4)C[C@@H]32)n1 [Example 457, ((1R,5S,6r)-3-(3-(4-chloro-2-methyl-2H-indazol-5-yl)-1H-pyrazolo[3,4-b]pyrazin-6-yl)-6-(4-methylthiazol-2-yl)-3-azabicyclo[3.1.0]hexan-6-yl)methanamine] | < 1000 | < 500 | –
5 | Cc1csc([C@@]2(CN)[C@@H]3CN(c4cnc5c(-c6ccn7nccc7c6Cl)n[nH]c5n4)C[C@@H]32)n1 [Example 458] | – | < 500 | < 1000
6 | Cc1csc([C@@]2(CN)[C@@H]3CN(c4cnc5c(-c6ccnc7c(F)cccc67)n[nH]c5n4)C[C@@H]32)n1 [Example 459] | – | < 500 | < 1000
7 | Cc1csc([C@@]2(CN)[C@@H]3CN(c4cnc5c(-c6ccc7nccnc7c6Cl)n[nH]c5n4)C[C@@H]32)n1 [Example 460] | – | < 500 | < 1000
8 | Cc1csc([C@@]2(CN)[C@@H]3CN(c4cnc5c(-c6ccc7nc(C)sc7c6Cl)n[nH]c5n4)C[C@@H]32)n1 [Example 461] | – | < 500 | < 1000
9 | Cc1csc([C@@]2(CN)[C@@H]3CN(c4cnc5c(-c6ccc7nscc7c6Cl)n[nH]c5n4)C[C@@H]32)n1 [Example 463] | – | < 500 | < 1000
10 | Cc1csc([C@@]2(CN)[C@@H]3CN(c4cnc5c(-c6ccc7cn(C(F)F)nc7c6Cl)n[nH]c5n4)C[C@@H]32)n1 [Example 464] | – | < 500 | < 1000
11 | Cc1csc([C@@]2(CN)[C@@H]3CN(c4cnc5c(-c6ccc7nn(C(F)F)cc7c6Cl)n[nH]c5n4)C[C@@H]32)n1 [Example 466] | – | < 500 | < 1000
12 | Cc1csc([C@@]2(CN)[C@@H]3CN(c4cnc5c(-c6ccc7nsnc7c6Cl)n[nH]c5n4)C[C@@H]32)n1 [Example 467] | – | < 500 | < 1000
13 | Cc1csc([C@@]2(CN)[C@@H]3CN(c4nc5[nH]nc(-c6ccc7nc(C)sc7c6Cl)c5c(=O)n4C)C[C@@H]32)n1 [Example 469, 6-((1R,5S,6r)-6-(aminomethyl)-6-(4-methylthiazol-2-yl)-3-azabicyclo[3.1.0]hexan-3-yl)-3-(7-chloro-2-methylbenzo[d]thiazol-6-yl)-5-methyl-1,5-dihydro-4H-pyrazolo[3,4-d]pyrimidin-4-one] | < 1000 | < 500 | –
14 | Cn1cc2c(Cl)c(-c3n[nH]c4nc(N5C[C@@H]6[C@H](C5)[C@@]6(CN)c5nc(Cl)cs5)n(C)c(=O)c34)ccc2n1 [Example 470, 6-((1R,5S,6r)-6-(aminomethyl)-6-(4-chlorothiazol-2-yl)-3-azabicyclo[3.1.0]hexan-3-yl)-3-(4-chloro-2-methyl-2H-indazol-5-yl)-5-methyl-1,5-dihydro-4H-pyrazolo[3,4-d]pyrimidin-4-one] | < 1000 | < 500 | –
15 | Cn1cc2c(Cl)c(-c3n[nH]c4nc(N5C[C@@H]6[C@H](C5)[C@@]6(CN)c5nc(C(F)(F)F)cs5)n(C)c(=O)c34)ccc2n1 [Example 471, 6-((1R,5S,6r)-6-(aminomethyl)-6-(4-(trifluoromethyl)thiazol-2-yl)-3-azabicyclo[3.1.0]hexan-3-yl)-3-(4-chloro-2-methyl-2H-indazol-5-yl)-5-methyl-1,5-dihydro-4H-pyrazolo[3,4-d]pyrimidin-4-one] | < 1000 | < 500 | –
16 | Cc1csc([C@@]2(CN)[C@@H]3CN(c4nc5[nH]nc(-c6ccc7nn(C)cc7c6Cl)c5c(=O)n4C)C[C@@H]32)n1 [Example 472, 6-((1R,5S,6r)-6-(aminomethyl)-6-(4-methylthiazol-2-yl)-3-azabicyclo[3.1.0]hexan-3-yl)-3-(4-chloro-2-methyl-2H-indazol-5-yl)-5-methyl-1,5-dihydro-4H-pyrazolo[3,4-d]pyrimidin-4-one] | < 1000 | < 500 | –
17 | Cc1csc([C@@]2(CN)[C@@H]3CN(c4nc5[nH]cc(-c6ccc7nn(C)cc7c6Cl)c5c(=O)n4C)C[C@@H]32)n1 [Example 473, 2-((1R,5S,6r)-6-(aminomethyl)-6-(4-methylthiazol-2-yl)-3-azabicyclo[3.1.0]hexan-3-yl)-5-(4-chloro-2-methyl-2H-indazol-5-yl)-3-methyl-3,7-dihydro-4H-pyrrolo[2,3-d]pyrimidin-4-one] | < 1000 | < 500 | –
18 | Cn1ccc([C@@]2(CN)[C@@H]3CN(c4cnc5c(-c6ccc7nn(C)cc7c6Cl)n[nH]c5n4)C[C@@H]32)n1 [Example 474, ((1R,5S,6r)-3-(3-(4-chloro-2-methyl-2H-indazol-5-yl)-1H-pyrazolo[3,4-b]pyrazin-6-yl)-6-(1-methyl-1H-pyrazol-3-yl)-3-azabicyclo[3.1.0]hexan-6-yl)methanamine] | < 1000 | < 500 | –
19 | Cc1nc2ccc(-c3n[nH]c4nc(N5C[C@@H]6[C@H](C5)[C@@]6(CN)c5ccn(C)n5)cnc34)c(Cl)c2s1 [Example 475, ((1R,5S,6r)-3-(3-(7-chloro-2-methylbenzo[d]thiazol-6-yl)-1H-pyrazolo[3,4-b]pyrazin-6-yl)-6-(1-methyl-1H-pyrazol-3-yl)-3-azabicyclo[3.1.0]hexan-6-yl)methanamine] | < 1000 | < 500 | –
20 | COc1nccc(-c2n[nH]c3nc(N4C[C@@H]5[C@H](C4)C5(CN)c4nc(C)cs4)cnc23)c1Cl (stereo partly shown) [Example 476] | – | < 500 | < 1000
21 | Cc1csc(C2(CN)[C@@H]3CN(c4cnc5c(-c6ccc7nn(CC#N)cc7c6Cl)n[nH]c5n4)C[C@@H]32)n1 (stereo partly shown) [Example 478] | – | < 500 | < 1000
22 | Cc1csc([C@@]2(CN)[C@@H]3CN(c4cnc5c(-c6ccc7nnsc7c6Cl)n[nH]c5n4)C[C@@H]32)n1 [Example 479] | – | < 500 | < 1000
23 | Cc1csc(C2(CN)[C@@H]3CN(c4cnc5c(-c6ccc7c(cnn7C)c6Cl)n[nH]c5n4)C[C@@H]32)n1 (stereo partly shown) [Example 480] | – | < 500 | < 1000
24 | Cc1csc([C@@]2(CN)[C@@H]3CCN(c4cnc5c(-c6cc7ccnn7cc6Cl)n[nH]c5n4)C[C@@H]32)n1 [Example 481, ((1S,6R,7S)-3-(3-(6-chloropyrazolo[1,5-a]pyridin-5-yl)-1H-pyrazolo[3,4-b]pyrazin-6-yl)-7-(4-methylthiazol-2-yl)-3-azabicyclo[4.1.0]heptan-7-yl)methanamine] | < 1000 | < 500 | –
25 | Cc1csc(C2(CN)[C@@H]3CN(c4cnc5c(-c6cccn7nccc67)n[nH]c5n4)C[C@@H]32)n1 (stereo partly shown) [Example 482] | – | < 500 | < 1000
26 | Cc1csc([C@@]2(CN)[C@@H]3CN(c4cnc5c(-c6ccc7ncn(C)c7c6Cl)n[nH]c5n4)C[C@@H]32)n1 [Example 483] | – | < 500 | < 1000
27 | CNC[C@]1(c2nc(C)cs2)[C@@H]2CN(c3cnc4c(-c5ccc6nn(C)cc6c5Cl)n[nH]c4n3)C[C@@H]21 [Example 484, 1-((1R,5S,6r)-3-(3-(4-chloro-2-methyl-2H-indazol-5-yl)-1H-pyrazolo[3,4-b]pyrazin-6-yl)-6-(4-methylthiazol-2-yl)-3-azabicyclo[3.1.0]hexan-6-yl)-N-methylmethanamine] | < 1000 | < 500 | –
28 | Cc1nc([C@@]2(CN)[C@@H]3CN(c4cnc5c(-c6ccc7nn(C)cc7c6Cl)n[nH]c5n4)C[C@@H]32)cs1 [Example 485, ((1R,5S,6r)-3-(3-(4-chloro-2-methyl-2H-indazol-5-yl)-1H-pyrazolo[3,4-b]pyrazin-6-yl)-6-(2-methylthiazol-4-yl)-3-azabicyclo[3.1.0]hexan-6-yl)methanamine] | < 1000 | < 500 | –
29 | Cn1cc2c(Cl)c(-c3n[nH]c4nc(N5C[C@@H]6[C@H](C5)[C@@]6(CN)c5nccs5)cnc34)ccc2n1 [Example 486, ((1R,5S,6r)-3-(3-(4-chloro-2-methyl-2H-indazol-5-yl)-1H-pyrazolo[3,4-b]pyrazin-6-yl)-6-(thiazol-2-yl)-3-azabicyclo[3.1.0]hexan-6-yl)methanamine] | < 1000 | < 500 | –
